The subject of test [1] is HCT-116. Nature of the test: Cell cycle arrest in human HCT-116 cells assessed as accumulation at sub-G1 phase at 1.25 uM measured after 48 hrs by propidium iodide staining based flow cytometry (reference value: 17%). The test is classed as functional. In general terms: In flow cytometry, cells or beads pass a laser one at a time.
In test [2] the test system is HCT-116. Description: Cell cycle arrest in human HCT-116 cells assessed as accumulation at sub-G1 phase at 5 uM measured after 48 hrs by propidium iodide staining based flow cytometry (reference value: 17%). The test is classed as functional.
For test [3], the system named is HCT-116. Nature of the test: Cell cycle arrest in human HCT-116 cells assessed as accumulation at S phase at 2.5 uM measured after 48 hrs by propidium iodide staining based flow cytometry (reference value: 10.4%). It is filed as functional.
The target in test [4] is Serine/threonine-protein kinase B-raf (Homo sapiens, UniProt P15056). Nature of the test: Inhibition of human BRAF at 10 uM using MEK1 (K97R) as substrate in presence of [gamma-33P]ATP by scintillation counting method relative to control.
In test [5] the test system is HCT-116. Description: Cell cycle arrest in human HCT-116 cells assessed as accumulation at sub-G1 phase at 1.25 uM measured after 24 hrs by propidium iodide staining based flow cytometry (reference value: 8.7%). It is filed as functional.
Test [6] has as its system HCT-116. Nature of the test: Cell cycle arrest in human HCT-116 cells assessed as accumulation at sub-G1 phase at 2.5 uM measured after 24 hrs by propidium iodide staining based flow cytometry (reference value: 8.7%). It is filed as functional.
In test [7] the test system is HCT-116. Nature of the test: Cell cycle arrest in human HCT-116 cells assessed as accumulation at sub-G1 phase at 5 uM measured after 24 hrs by propidium iodide staining based flow cytometry (reference value: 8.7%). It is filed as functional.
Test [8] concerns HCT-116. Description: Cell cycle arrest in human HCT-116 cells assessed as accumulation at G1/G0 phase at 5 uM measured after 24 hrs by propidium iodide staining based flow cytometry (reference value: 65%). The test is classed as functional.
The test system of test [9] is HCT-116. Description: Cell cycle arrest in human HCT-116 cells assessed as accumulation at S phase at 2.5 uM measured after 24 hrs by propidium iodide staining based flow cytometry (reference value: 7.2%). It is filed as functional.
Test [10] relates to HCT-116. Description: Cell cycle arrest in human HCT-116 cells assessed as accumulation at S phase at 5 uM measured after 24 hrs by propidium iodide staining based flow cytometry (reference value: 7.2%). The test is classed as functional.
Test [11] concerns HCT-116. Nature of the test: Cell cycle arrest in human HCT-116 cells assessed as accumulation at G2/M phase at 2.5 uM measured after 24 hrs by propidium iodide staining based flow cytometry (reference value: 19.2%). The test is classed as functional.
Test [12] concerns HCT-116. Nature of the test: Cell cycle arrest in human HCT-116 cells assessed as accumulation at G2/M phase at 5 uM measured after 24 hrs by propidium iodide staining based flow cytometry (reference value: 19.2%). It is filed as functional.

Data on two molecules can be found in ChEMBL document CHEMBL4706583, “2-Anilinoquinoline based arylamides as broad spectrum anticancer agents with B-RAF/C-RAF kinase inhibitory effects: Design, synthesis, in vitro cell-based and oncogenic kinase assessments” (Eur J Med Chem, 2020).

Chain of Serine/threonine-protein kinase B-raf (P15056 whole entry): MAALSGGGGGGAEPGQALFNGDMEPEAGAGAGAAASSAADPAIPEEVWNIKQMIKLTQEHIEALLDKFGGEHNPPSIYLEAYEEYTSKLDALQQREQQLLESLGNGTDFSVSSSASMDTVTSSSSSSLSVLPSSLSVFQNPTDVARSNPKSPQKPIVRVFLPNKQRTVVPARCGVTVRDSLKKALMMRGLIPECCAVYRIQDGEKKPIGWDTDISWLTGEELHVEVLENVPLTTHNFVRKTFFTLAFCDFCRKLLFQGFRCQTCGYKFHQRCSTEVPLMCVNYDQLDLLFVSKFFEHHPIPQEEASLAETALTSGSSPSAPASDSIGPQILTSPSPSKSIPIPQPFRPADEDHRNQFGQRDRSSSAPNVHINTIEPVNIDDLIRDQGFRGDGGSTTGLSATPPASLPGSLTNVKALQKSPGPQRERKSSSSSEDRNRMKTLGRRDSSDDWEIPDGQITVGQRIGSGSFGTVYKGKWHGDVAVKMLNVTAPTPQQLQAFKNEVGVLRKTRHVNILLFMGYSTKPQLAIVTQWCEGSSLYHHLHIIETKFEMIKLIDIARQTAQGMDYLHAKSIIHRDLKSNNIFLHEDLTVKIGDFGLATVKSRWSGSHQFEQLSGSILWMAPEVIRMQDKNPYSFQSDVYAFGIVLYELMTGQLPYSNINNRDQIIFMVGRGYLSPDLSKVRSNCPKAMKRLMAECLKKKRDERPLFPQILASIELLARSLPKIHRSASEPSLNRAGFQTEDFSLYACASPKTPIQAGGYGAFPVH

With `CCN1CCN(c2cc(C(=O)Nc3cccc(Nc4ccc5c(OC)cccc5n4)c3)cc(C(F)(F)F)c2)CC1`, the Activity in test [1] is listed as 21%; in test [2], 14.1%; in test [3] it was 9.2%. In test [4], the inhibition amounted to 94.4%.
As to `COc1cccc2nc(Nc3cccc(NC(=O)c4ccc(N5CCN(C)CC5)c(C(F)(F)F)c4)c3)ccc12`, the Activity came out at 9.6% in test [5]; 7.9% in [6]; 9.1% in test [7]; 71% in test [8]; 7.3% in [9]; 6.3% in test [10]. Further, the values for the Activity in test [11] and in [12] were 15.1% and 13.7%, respectively.

For orientation: inhibition means the relative decrease from the control value, in per cent.
